The record followed here is US8697081B2, “Method of modulating neovascularization” (The Regents of the University of Michigan, priority 2008, dated 2014).

Assay type in all cases: cell-based
Assay [1] relates to Human umbilical vein endothelial cells. As to the kind of experiment: Nucleoli and nuclear speckle morphology (fibrillarin, SC-35 immunostaining). As to conditions: for fibrillarin or SC-35 distribution: 2-D culture conditions; for patterns of fibrillarin and SC-35 staining: 3-D culture, VEGF/HGF-stimulated. The source says:
At sites of tissue damage, inflammation or neoplasia, fibrinogen is converted into a 3-D meshwork of fibrin fibrils that serve as a structural support for endothelial cells undergoing neovascularization (Chun et al. 2006. Cell, 125: 577-591; Hiraoka et al. 1998. Cell, 95: 365-377; Schafer and Werner. 2008. Nat. Rev. Mol. Cell Biol., 9: 628-638; Zhou et al. 2008. Genes Dev., 22: 1231-1243). This process can be recapitulated in vitro by embedding serum-supplemented human endothelial cells within a 3-D fibrin gel in the presence of the pro-angiogenic factors, VEGF and HGF. Human umbilical vein endothelial cells were isolated from umbilical cords by perfusion of the umbilical vein with type 3 collagenase (Worthington, Lakewood, N.J.) and cultured in Medium-199 (Invitrogen, Carlsbad, Calif.) with 20% human serum and 50 μg/ml endothelial cell growth supplement (ECGS; BD Biosciences, Franklin Lakes, N.J.). For 3-D culture, endothelial cells were suspended in a solution of thrombin and aprotinin (Sigma, St. Louis, Mo.) and mixed 1:1 with a solution of 6 mg/ml fibrinogen (Calbiochem, Gibbstown, N.J.). Vasculogenesis was triggered by treatment with 100 ng/ml VEGF, 50 ng/ml HGF (Genentech, San Francisco, Calif.). Fibronectin fibrillogenesis was tracked in 3-D by co-culture with human fibronectin (Sigma) labeled with Alexa-594 (Invitrogen).
The morphology of nucleoli and nuclear speckles—which serve, respectively, as ribosomal RNA and pre-mRNA processing sites—was assessed by immunostaining for fibrillarin (a pre-rRNA processing protein) or SC-35 (a pre-mRNA splicing protein) (Tang et al., supra). […] Likewise, nuclear speckle morphology changed from a small number of large foci to more numerous, smaller foci.

Assay [2] has the same test system. Put plainly: Nesprin distribution at the nuclear envelope in 3-D fibrin gels. As to conditions: VEGF/HGF-stimulated. From the text: Physical interactions between cytoskeletal networks and the nucleus are mediated by a family of Klarsicht, ANC-1, Syne homology (KASH) domain-containing proteins. The C-terminal domains of the proteins are embedded within the outer nuclear membrane, where they interact with the inner nuclear membrane via members of the SUN protein family (Crisp et al., 2006. J. Cell Biol., 172: 41-53; Dechat et al., supra; Starr, supra; Stewart et al., supra; Wilhelmsen et al., 2006. J. Cell Biol., 171: 799-810). In turn, SUN proteins span the inner nuclear membrane to establish binding interactions with a scaffold of lamin family members and nuclear pore complexes (Dechat et al., supra; Starr, supra; Stewart et al., supra). To determine whether this interaction plays a role in the nuclear morphology regulation by ECM remodeling, expression of nesprins-1 and 2 (also termed Syne-1 and 2) nesprin-3 was examined in 3-D-embedded endothelial cells. Nesprins-1 and 2 bind F-actin, while nesprin-3 indirectly interacts with intermediate filaments via binding of plectin (Crisp and Burke, 2008. FEBS Lett., 582: 2023-2032; Starr, supra; Stewart et al., supra).

The subject of the next assay is human endothelial cells. As to the kind of experiment: Fn matrix assembly by endothelial cells in 3-D fibrin gel, confocal laser microscopy. Here is the method: Endothelial cells were isolated from human umbilical cord veins by collagenase digestion and cultured in Medium 199 (Gibco) containing 20% human serum, 50 μg/ml endothelial cell growth supplement (BD Biosciences), 100 U/ml penicillin, and 100 μg/ml streptomycin (Hiraoka et al. 1998. Cell, 95(3): 365-377). For 2-D/3-D culture, endothelial cell monolayers (no later than third passage) were suspended by mild trypsinization and dispersed within or plated atop fibrin (3 mg/ml) or collagen (2.2 mg/ml) gels (prepared as described in Hiraoka, supra, and Hotary et al. 2003. Cell, 114(1): 33-45), and stimulated with a cocktail of growth factors including 100 ng/ml human vascular endothelial growth factor (Genentech), 50 ng/ml human hepatocyte growth factor (Genentech), 10 ng/ml human TGFα (Biosource), 0.5 ng/ml TGFβ1 (R and D Systems), and 100 μg/ml heparin (Sigma). In selected experiments, endothelial cell spheroids were prepared and suspended in 3-D fibrin gels.
The effect of Fn matrix assembly, or lack thereof, on endothelial cell function during neovascularization was assessed. Human serum was depleted of Fn by gelatin-sepharose affinity chromatography (Amersham) and supplemented with either 20 μg/ml of human plasma Fn (Sigma) or FITC-labeled Fn. […]
(Chernousov et al. 1991. J. Biol. Chem., 266(17): 10851-10858; Tomasini-Johansson et al. 2001. J. Biol. Chem., 276(26): 23430-23439; Mao and Schwarzbauer. 2005. Matrix Biol., 24(6): 389-399; and Tomasini-Johansson et al. 2006. Matrix Biol., 25(5): 282-293). […] Cell number in 3-D cultures was determined by hemacytometry after dissolving gels with 2 mg/ml bacterial collagenase (Worthington) while the number of patent tubules was determined in randomly selected cross-sections. Fn matrix assembly and cell morphology were monitored by confocal laser microscopy. To examine cell migration, endothelial cells were embedded in a 100 μl fibrin gel for 2 hours, then placed within a 500 μl gel for 8 days in the presence of Del29, FUD, control IgG, or L8, after which migration from the inner gel was assessed. […]

On to `CNC(=O)[C@H](Cc1c[nH]c2ccccc12)NC(=O)[C@@H](CC(=O)NO)CC(C)C` [GM6001], for which, in assay [1], the “fibrillarin or SC-35 distribution” value is recorded as “did not affect”; the “patterns of fibrillarin and SC-35 staining” value was “reversed to that resembling unstimulated endothelial cells”. The “nesprin distribution at the nuclear envelope” value in assay [2] is “irregular nesprin distributions”.

For the molecule `Cc1ccc2c(c1)C(=O)C1(O)CCN(c3ccccc3)C1=N2` (centres unmarked) [blebbistatin], the “pericellular Fn matrix assembly” value with human endothelial cells (2 days, 50 μM blebbistatin) is given as “failed to assemble”.

As for “FUD: 49-residue functional upstream domain of Streptococcus pyogenes F1 adhesion protein, SEQ ID NO: 10; fibronectin fibril assembly inhibitor (KDQSPLAGESGETEYITEVYGNQQNPVDIDKKLPNETGFSGNMVETEDT; Streptococcus pyogenes; Functional Upstream Domain (FUD) of F1 adhesion protein)”, in the assay with human endothelial cells (growth factor cocktail, FUD or Del29 250 nM, L8 or 9D2 100 μg/ml, 70 kDa Fn fragment 75 μg/ml), the “Fn matrix assembly (Fn polymerization)” value is reported as “attenuated”. Also, in assay [1], the “fibrillarin or SC-35 distribution” value is reported as “did not affect”; the “patterns of fibrillarin and SC-35 staining” value is “reversed to that resembling unstimulated endothelial cells”. In addition, the “nesprin distribution at the nuclear envelope” value in assay [2] was “irregular nesprin distributions”.
